Laboratory results reported in patent US20260125400A1, “TYK2 DEGRADERS AND USES THEREOF” (Kymera Therapeutics, Inc., priority 2023, published 2026).
Read-outs that look alike come from different tables or passages of the source.

Biological target: T1, TYK2 (Homo sapiens, UniProt P29597)
T1 construct: Degradation of TYK2 in cells was quantitatively measured using Meso Scale Discovery (MSD) technology; endogenous in cells; host or cells: OCI-LY10
Experiment: TYK2 MSD degradation in OCI-LY10 cells
Format: cell-based
Details: 4 to 24 hours incubation; for DC50: read-out: TYK2 MSD OCI-LY10 Rel-DC50
Description: Example 7. TYK2 MSD Degradation
Degradation of TYK2 in cells was quantitatively measured using Meso Scale Discovery (MSD) technology. OCI-LY10 cells were seeded in 96-well plates with a density of 0.4 million cells per well in 100 μl fresh media. Compounds were then added to the assay plates with a final top concentration of 1 to 10 μM in a 1:3 dilution series with total of 9 doses. The assay plates were then incubated for 4 to 24 hours at 37° C. under […]. The assay plates were then centrifuged for 5 minutes, and the cell pellets were treated with 100 μl/well RIPA lysis buffer (Boston Bioproducts, BP-115D) with protease and phosphatase inhibitors (Roche, 05892791001 and 04906837001). To prepare MSD assay plates (MSD, L15XA), the plates were coated with the capture antibody (Santa Cruz Biotechnology, SC-5271) in PBS, at 40 μl/well. The plates were then incubated overnight at 4° C., washed 3 times with 150 μl/well TBST buffer (Cell Signaling Technology, 9997S) and blocked with 150 μl/well blocking buffer (MSD, R93BA-4). Cell lysates were then added to MSD assay plates and the plates were incubated at room temperature for 1 hour. The plates were then washed 3 times with 150 μl/well TBST buffer and 25 μl/well primary detection antibody (Cell Signaling Technology, #9312). The assay plates were then incubated at room temperature for 1 hour, washed 3 times with 150 μl/well TBST buffer, and 25 μl/well secondary detection antibody, SULFO-TAG anti-rabbit antibody (MSD, R32AB-1) were added. The assay plates were then incubated at room temperature for 1 hour, washed 3 times with 150 μl/well TB ST buffer, and 150 μl/well MSD reading buffer (MSD, R92TC-2) were added. The plates were then analyzed by an MSD reader. The data was analyzed by GraphPad Prism and the dose dependent TYK2 degradation was fit using the four-parameter inhibitor vs. response nonlinear regression.
The letter codes for TYK2 DC50 include: A (<1 nM); B (i to <10 nM); C (10 to 100 nM); D (>100 nM); and E (not tested). The letter codes for TYK2 Dmax % include: A (>90%); B (90 to >75%); C (75 to 50%); D (<50%); and E (not tested).

[1] = TYK2 degradation in OCI-LY10 cells

T1 sequence (P29597 whole entry): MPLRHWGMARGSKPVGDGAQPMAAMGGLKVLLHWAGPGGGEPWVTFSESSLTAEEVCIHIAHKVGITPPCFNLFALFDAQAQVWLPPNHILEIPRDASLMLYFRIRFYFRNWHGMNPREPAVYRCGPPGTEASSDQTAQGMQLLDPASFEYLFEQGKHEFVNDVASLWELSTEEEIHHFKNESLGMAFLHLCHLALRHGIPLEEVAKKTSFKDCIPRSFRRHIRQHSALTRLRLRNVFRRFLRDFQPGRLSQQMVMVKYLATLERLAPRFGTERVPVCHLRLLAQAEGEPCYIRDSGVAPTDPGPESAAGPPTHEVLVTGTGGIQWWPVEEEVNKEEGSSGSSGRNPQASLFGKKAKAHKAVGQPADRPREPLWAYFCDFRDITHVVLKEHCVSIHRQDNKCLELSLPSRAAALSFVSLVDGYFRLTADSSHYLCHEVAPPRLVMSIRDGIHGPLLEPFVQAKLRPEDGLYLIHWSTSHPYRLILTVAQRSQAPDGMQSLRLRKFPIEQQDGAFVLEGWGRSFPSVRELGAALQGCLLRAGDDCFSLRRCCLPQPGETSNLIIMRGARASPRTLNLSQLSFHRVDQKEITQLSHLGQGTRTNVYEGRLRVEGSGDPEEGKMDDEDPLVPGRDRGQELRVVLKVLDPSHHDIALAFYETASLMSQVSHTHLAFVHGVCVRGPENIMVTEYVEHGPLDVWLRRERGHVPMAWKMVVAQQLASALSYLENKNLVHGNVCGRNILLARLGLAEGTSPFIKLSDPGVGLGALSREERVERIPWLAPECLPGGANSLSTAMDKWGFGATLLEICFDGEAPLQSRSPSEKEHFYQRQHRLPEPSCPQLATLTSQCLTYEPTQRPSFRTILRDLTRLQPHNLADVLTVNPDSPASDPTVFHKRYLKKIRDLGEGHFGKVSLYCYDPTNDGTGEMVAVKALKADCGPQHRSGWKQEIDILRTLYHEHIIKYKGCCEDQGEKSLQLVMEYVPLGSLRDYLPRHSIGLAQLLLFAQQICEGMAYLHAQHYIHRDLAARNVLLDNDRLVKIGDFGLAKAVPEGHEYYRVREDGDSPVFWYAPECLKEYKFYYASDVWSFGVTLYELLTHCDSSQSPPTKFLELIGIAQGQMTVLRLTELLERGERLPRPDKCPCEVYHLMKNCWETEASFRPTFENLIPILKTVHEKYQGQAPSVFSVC

## CNc1cc(N2CCc3c(-c4ccc(CN5CC6(CCN(Cc7ccc(C)c(N8CCC(=O)NC8=O)c7)CC6(F)F)C5)cn4)cccc32)nn2c(C(=O)N[C@@H]3C[C@@H]3F)cnc12 [I-366]
[1]
  TYK2 MSD OCI-LY10 Dmax %: D (D (<50%))
  DC50: < 10 nM

## CNc1cc(-c2cn(CC3CCN(C4CCN(C(=O)c5ccc(Cl)c(N6CCC(=O)NC6=O)c5)CC4)CC3)c3ccccc23)nn2c(C(=O)N[C@@H]3C[C@@H]3F)cnc12 [I-768]
OCI-LY10 cells
  TYK2 MSD OCI-LY10 Dmax %: D (D (<50%))
  DC50: > 100 nM

## CNc1cc(N2CCc3c(CN4CCC(CN5CCC6(CC5)CN(C(=O)c5ccc(Cl)c(N7CCC(=O)NC7=O)c5)C6)CC4)cccc32)nn2c(C(=O)N[C@@H]3C[C@@H]3F)cnc12 [I-893]
[1]
  TYK2 MSD OCI-LY10 Dmax %: D (D (<50%))
  DC50: > 100 nM

## CNc1cc(N2CCc3c(-c4ncc(CN5CC6(CCN(C(=O)c7cc(N8CCC(=O)NC8=O)c(Cl)c(C)n7)CC6(F)F)C5)cc4F)cc(F)cc32)nn2c(C(=O)N[C@@H]3CC[C@H]3OC)cnc12 [I-1151]
[1]
  TYK2 MSD OCI-LY10 Dmax %: A (A (>90%))
  DC50: < 1 nM

## CNc1cc(N2CCc3c(-c4ccc(CN5CCC6(CCN(C(=O)c7cc(Cl)c(F)c(N8CCC(=O)NC8=O)c7)CC6)C(F)(F)C5)cn4)cccc32)nn2c(C(=O)N[C@@H]3C[C@@H]3F)cnc12 [I-792]
OCI-LY10 cells
  TYK2 MSD OCI-LY10 Dmax %: B (B (90 to >75%))
  DC50: < 10 nM

## CNc1cc(N2CCc3c(C4CCCN(CC5CC6(C5)CN(c5ccc7c(c5)n(C)c(=O)n7C5CCC(=O)NC5=O)C6)C4)cccc32)nn2c(C(=O)NC3CC3)cnc12 (centres unmarked) [I-59]
[1]
  TYK2 MSD OCI-LY10 Dmax %: D (D (<50%))
  DC50: < 1 nM

## CNc1cc(N2CCc3c(-c4ccc(CN5CC6(CCN(C(=O)c7cc(Cl)c(C)c(N8CCC(=O)NC8=O)c7)CC6(F)F)C5)cn4)cccc32)nn2c(C(=O)N[C@@H]3CC[C@H]3OC)cnc12 [I-754]
OCI-LY10 cells
  TYK2 MSD OCI-LY10 Dmax %: A (A (>90%))
  DC50: < 1 nM

## CNc1cc(N2CCc3c(-c4ccc(CN5CC6(CCN(C(=O)c7ccc(Cl)c(N8CCC(=O)NC8=O)c7)CC6(F)F)C5)cn4)cccc32)nn2c(C(=O)NC3CC(F)(F)C3)cnc12 [I-653]
OCI-LY10 cells
  TYK2 MSD OCI-LY10 Dmax %: B (B (90 to >75%))
  DC50: < 10 nM

## CNc1cc(N2CCc3c(-c4ccc(CC5CC6(CCN(C(c7ccc(Cl)c(N8CCC(=O)NC8=O)c7)C(F)(F)F)CC6)C5)cn4)cccc32)nn2c(C(=O)N[C@@H]3C[C@@H]3F)cnc12 (some centres unmarked) [I-272]
[1]
  TYK2 MSD OCI-LY10 Dmax %: D (D (<50%))
  DC50: > 100 nM

## CNc1cc(N2CCc3c(-c4ccc(CN5CCC6(CCN(C(=O)c7ccc(Cl)c(N8CCC(=O)NC8=O)c7)CC6)C5)cn4)cccc32)nn2c(C(=O)N[C@H]3C[C@H]3F)cnc12 [I-85]
[1]
  TYK2 MSD OCI-LY10 Dmax %: B (B (90 to >75%))
  DC50: < 1 nM

## CNc1cc(N2CCc3c(CN4CCC(CCN5CCN(C(=O)c6ccc(Cl)c(N7CCC(=O)NC7=O)c6)CC5)CC4)cccc32)nn2c(C(=O)N[C@@H]3C[C@@H]3F)cnc12 [I-717]
OCI-LY10 cells
  TYK2 MSD OCI-LY10 Dmax %: C (C (75 to 50%))
  DC50: < 10 nM

## CNc1cc(N2CCc3c(CN4CC[C@H](N5CCC6(CC5)CN(C(=O)c5cc(Cl)c(C)c(N7CCC(=O)NC7=O)c5)C6)C(F)(F)C4)cccc32)nn2c(C(=O)N[C@@H]3CC[C@H]3OC)cnc12 [I-1142]
[1]
  TYK2 MSD OCI-LY10 Dmax %: A (A (>90%))
  DC50: < 1 nM

## CNc1cc(N2CCc3c(-c4ccc(CN5CCN(Cc6ccc(NC7CCC(=O)NC7=O)c(Cl)c6)CC5)cn4)cccc32)nn2c(C(=O)N[C@@H]3C[C@@H]3F)cnc12 (some centres unmarked) [I-389]
[1]
  TYK2 MSD OCI-LY10 Dmax %: C (C (75 to 50%))
  DC50: < 10 nM

## CNc1cc(N2CCc3c(-c4ccc(CN5CC6(CCN(C(=O)c7ccc(Cl)c(N8CCC(=O)NC8=O)c7)C6)C5)cn4)cccc32)nn2c(C(=O)NC3CC3F)cnc12 (centres unmarked) [I-296]
[1]
  TYK2 MSD OCI-LY10 Dmax %: C (C (75 to 50%))
  DC50: < 1 nM

## CNc1cc(N2CCc3c(-c4ccc(N5CCC6(CCN(C(=O)c7ccc(N8CCC(=O)NC8=O)c(Cl)c7)CC6)CC5)cn4)cccc32)nn2c(C(=O)N[C@@H]3C[C@@H]3F)cnc12 [I-885]
[1]
  TYK2 MSD OCI-LY10 Dmax %: C (C (75 to 50%))
  DC50: 10 to 100 nM

## CNc1cc(-c2cn(CC3CCN(CC4CCN(C(=O)c5ccc(Cl)c(N6CCC(=O)NC6=O)c5)CC4)CC3)c3ccccc23)nn2c(C(=O)N[C@@H]3C[C@@H]3F)cnc12 [I-773]
OCI-LY10 cells
  TYK2 MSD OCI-LY10 Dmax %: D (D (<50%))
  DC50: > 100 nM

## CNc1cc(N2CCc3c(-c4ccc(CN5CC6(CCN(Cc7cc(N8CCC(=O)NC8=O)c(Cl)cc7C)CC6(F)F)C5)cn4)cccc32)nn2c(C(=O)N[C@@H]3C[C@@H]3F)cnc12 [I-456]
OCI-LY10 cells
  TYK2 MSD OCI-LY10 Dmax %: D (D (<50%))
  DC50: > 100 nM

## CNc1cc(N2CCc3c(CN4CCC(N5CCN(Cc6ccc(Cl)c(C7CCC(=O)NC7=O)c6)CC5)C(F)(F)C4)cccc32)nn2c(C(=O)NC3CC3F)cnc12 (centres unmarked) [I-421]
OCI-LY10 cells
  TYK2 MSD OCI-LY10 Dmax %: D (D (<50%))
  DC50: > 100 nM

## CNC(=O)c1cnc(Nc2ccc(C(=O)NCCOCCOCCN(C(=O)[C@H]3CCCN(c4cncc5ccccc45)C3)c3ccc(=O)n(CC(=O)O)c3)cn2)cc1Nc1cccc(-c2ncccn2)c1OC [I-915, (S)-2-(5-(1-(isoquinolin-4-yl)-N-(2-(2-(2-(6-((4-((2-methoxy-3-(pyrimidin-2-yl)phenyl)amino)-5-(methylcarbamoyl)pyridin-2-yl)amino)nicotinamido)ethoxy)ethoxy)ethyl)piperidine-3-carboxamido)-2-oxopyridin-1(2H)-yl)acetic acid]
[1]
  Dmax: 50 to 75%
  DC50: 10 to 100 nM

## CNc1cc(N2CCc3c(CN4CCN(C5CCC6(CC5)CCN(C(=O)c5ccc(Cl)c(N7CCC(=O)NC7=O)c5)CC6)CC4)cccc32)nn2c(C(=O)N[C@@H]3C[C@@H]3F)cnc12 [I-857]
[1]
  TYK2 MSD OCI-LY10 Dmax %: A (A (>90%))
  DC50: < 1 nM

## CNc1cc(N2CCc3c(-c4ncc(CN5CC6(CCN(C(=O)c7cc(N8CCC(=O)NC8=O)c(Cl)cc7F)CC6(F)F)C5)cc4F)cccc32)nn2c(C(=O)NC3CCC3OC)cnc12 (centres unmarked) [I-1005]
[1]
  TYK2 MSD OCI-LY10 Dmax %: A (A (>90%))
  DC50: < 1 nM

## CNc1cc(N2CCc3c(CN4CCC(N5CCC(Oc6ccc(Cl)c(N7CCC(=O)NC7=O)c6)CC5)C(F)(F)C4)cccc32)nn2c(C(=O)N[C@@H]3C[C@@H]3F)cnc12 (some centres unmarked) [I-291]
[1]
  TYK2 MSD OCI-LY10 Dmax %: D (D (<50%))
  DC50: > 100 nM

## CNc1cc(N2CCc3c(CN4CCC(N5CC6(CCN(C(=O)c7ccc(Cl)c(N8CCC(=O)NC8=O)c7)CC6)C5)C(F)(F)C4)cccc32)nn2c(C(=O)N[C@@H]3C[C@@H]3F)cnc12 (some centres unmarked) [I-840]
[1]
  TYK2 MSD OCI-LY10 Dmax %: A (A (>90%))
  DC50: < 1 nM

## CNc1cc(N2CCc3c(CN4CCC(N5CCC6(CCN(C(=O)c7cc(N8CCC(=O)NC8=O)c(Cl)cc7C)CC6)CC5)C(F)(F)C4)cccc32)nn2c(C(=O)N[C@@H]3C[C@@H]3F)cnc12 (some centres unmarked) [I-765]
OCI-LY10 cells
  TYK2 MSD OCI-LY10 Dmax %: B (B (90 to >75%))
  DC50: < 10 nM

## CNc1cc(N2CCc3c(-c4ncc(CN5CCC6(CCN(C(=O)c7cc(C)c(Cl)c(N8CCC(=O)NC8=O)c7)CC6)C(F)(F)C5)cn4)cccc32)nn2c(C(=O)N[C@@H]3C[C@@H]3F)cnc12 [I-799]
[1]
  TYK2 MSD OCI-LY10 Dmax %: B (B (90 to >75%))
  DC50: < 10 nM

## CNc1cc(N2CCc3c(CN4CCC(N5CCN(c6ccc7c(c6)n(C)c(=O)n7C6CCC(=O)NC6=O)CC5)C(F)(F)C4)cccc32)nn2c(C(=O)NC3CC3)cnc12 (centres unmarked) [I-15]
[1]
  TYK2 MSD OCI-LY10 Dmax %: C (C (75 to 50%))
  DC50: < 1 nM

## CNc1cc(N2CCc3c(-c4ccc(CN5CCC(N6CCC7(CCN(c8ccc9c(c8)n(C)c(=O)n9C8CCC(=O)NC8=O)CC7)CC6)C(F)(F)C5)cn4)cccc32)nn2c(C(=O)N[C@@H]3C[C@@H]3F)cnc12 (some centres unmarked) [I-371]
[1]
  TYK2 MSD OCI-LY10 Dmax %: C (C (75 to 50%))
  DC50: < 10 nM

## CNc1cc(N2CCc3c(-c4ccc(CN5CC6(CCN(Cc7ccc(Cl)c(C8CCC(=O)NC8=O)c7)CC6(F)F)C5)cn4)cccc32)nn2c(C(=O)N[C@@H]3C[C@@H]3F)cnc12 (some centres unmarked) [I-365]
[1]
  TYK2 MSD OCI-LY10 Dmax %: C (C (75 to 50%))
  DC50: < 10 nM

## COC1(c2cc(-c3ccc(CN4CC5(CCN(C(=O)c6ccc(Cl)c(N7CCC(=O)NC7=O)c6)CC5)C4)cn3)cc(-c3cn(C)c4cnc(NC(C)=O)cc34)n2)CCOC1 (centres unmarked) [I-850]
[1]
  TYK2 MSD OCI-LY10 Dmax %: B (B (90 to >75%))
  DC50: < 10 nM

## CNc1cc(N2CCc3c(CC4CCN(C5CCC6(CC5)CCN(C(=O)c5ccc(Cl)c(N7CCC(=O)NC7=O)c5)CC6)CC4(F)F)cccc32)nn2c(C(=O)N[C@@H]3C[C@@H]3F)cnc12 (some centres unmarked) [I-686]
OCI-LY10 cells
  TYK2 MSD OCI-LY10 Dmax %: B (B (90 to >75%))
  DC50: < 10 nM

## CNc1cc(N2CCc3c(CN4CCC(N5CC(CC6CCN(C(=O)c7ccc(Cl)c(N8CCC(=O)NC8=O)c7)CC6)C5)C(F)(F)C4)cccc32)nn2c(C(=O)N[C@@H]3C[C@@H]3F)cnc12 (some centres unmarked) [I-753]
OCI-LY10 cells
  TYK2 MSD OCI-LY10 Dmax %: A (A (>90%))
  DC50: < 1 nM
